Measured values reported in ChEMBL document CHEMBL5137046, “Discovery of novel 2,3-dihydro-1H-inden-1-ones as dual PDE4/AChE inhibitors with more potency against neuroinflammation for the treatment of Alzheimer's disease” (Eur J Med Chem, 2022).
Active and inactive are the calls of the source. No cut-off for these calls is given here.

Key:
[1] = target: T1, 3',5'-cyclic-AMP phosphodiesterase 4D (Homo sapiens, UniProt Q08499); assay: Inhibition of PDE4D7 (unknown origin)
[2] = system: PC-12; assay: Neuroprotective activity against rat PC-12 cells assessed as inhibition of Abeta(25-35)-induced cytotoxicity by measuring increase in cell viability at 10 uM incubated for 24 hrs by MTT assay; format: functional, cell-based
[3] = system: BV-2; assay: Anti-neuroinflammatory activity against LPS-stimulated mouse BV-2 cells assessed as reduction in TNF-alpha production at 20 uM pretreated for 1 hr with compound followed by LPS treatment for 24 hrs by ELISA; format: functional, cell-based; conditions: time 25.0 hrs
[4] = system: Mus musculus; assay: In vivo inhibition of AChE in hippocampus of aggregated Abeta(25-35)-induced Alzheimer's disease C57BL/6 mouse model at 2 mg/kg, iv measured after 2 hrs by Ellman's method; format: functional, organism-based
[5] = system: Mus musculus; assay: Anti-neuroinflammatory activity against aggregated Abeta(25-35)-induced Alzheimer's disease C57BL/6 mouse model assessed as inhibition of TNF-alpha production in hippocampus at 2 mg/kg, iv measured after 2 hrs by ELISA; format: functional, organism-based
[6] = system: Mus musculus; assay: Anti-neuroinflammatory activity against aggregated Abeta(25-35)-induced Alzheimer's disease C57BL/6 mouse model assessed as inhibition of TNF-alpha production in hippocampus at 1 mg/kg, iv measured after 2 hrs in presence of 1 mg/kg, iv rolipram by ELISA; format: functional, organism-based
[7] = target: Acetylcholinesterase (Electrophorus electricus, UniProt O42275); assay: Inhibition of electric eel AChE using acetylthiocholine iodide as substrate preincubated with enzyme for 20 mins followed by substrate addition and measured after 10 mins by Ellman's method
[8] = target: T1, 3',5'-cyclic-AMP phosphodiesterase 4D; assay: Inhibition of PDE4D7 (unknown origin) at 10 uM
[9] = target: Acetylcholinesterase (Electrophorus electricus) (UniProt O42275); assay: Inhibition of electric eel AChE using acetylthiocholine iodide as substrate at 10 uM preincubated with enzyme for 20 mins followed by substrate addition and measured after 10 mins by Ellman's method; conditions: time 30.0 min
[10] = target: Acetylcholinesterase (Electrophorus electricus) (UniProt O42275); assay: Potency index, ratio of donepezil IC50 to test compound IC50 for inhibition of electric eel AChE using acetylthiocholine iodide as substrate preincubated with enzyme for 20 mins followed by substrate addition and measured after 10 mins by Ellman's method; conditions: time 30.0 min
[11] = target: Cholinesterase (Equus caballus, UniProt P81908); assay: Inhibition of horse serum BuChE using butyrylthiocholine iodide as substrate preincubated with enzyme for 20 mins followed by substrate addition and measured after 10 mins by Ellman's method; format: cell-free
[12] = target: Dual specificity calcium/calmodulin-dependent 3',5'-cyclic nucleotide phosphodiesterase 1A (Homo sapiens, UniProt P54750); assay: Inhibition of PDE1A (unknown origin)
[13] = target: cGMP-dependent 3',5'-cyclic phosphodiesterase (Homo sapiens, UniProt O00408); assay: Inhibition of PDE2A (unknown origin)
[14] = target: cGMP-inhibited 3',5'-cyclic phosphodiesterase 3B (Homo sapiens, UniProt Q13370); assay: Inhibition of PDE3B (unknown origin)
[15] = target: cGMP-specific 3',5'-cyclic phosphodiesterase (Homo sapiens, UniProt O76074); assay: Inhibition of PDE5A (unknown origin)
[16] = Inhibition of […] (unknown origin); set-up: species or system Homo sapiens
[17] = target: High affinity 3',5'-cyclic-AMP phosphodiesterase 7A (Homo sapiens, UniProt Q13946); assay: Inhibition of PDE7A (unknown origin)
[18] = target: High affinity cAMP-specific and IBMX-insensitive 3',5'-cyclic phosphodiesterase 8A (Homo sapiens, UniProt O60658); assay: Inhibition of PDE8A1 (unknown origin)
[19] = target: High affinity cGMP-specific 3',5'-cyclic phosphodiesterase 9A (Homo sapiens, UniProt O76083); assay: Inhibition of PDE9A2 (unknown origin)
[20] = Neurotoxicity against rat PC-12 cells assessed as reduction in cell viability up to 20 uM incubated for 24 hrs by MTT assay; format: toxicity, cell-based; conditions: pc-12, 24 h
[21] = system: PC-12; assay: Neuroprotective activity against rat PC-12 cells assessed as inhibition of Abeta(25-35)-induced cytotoxicity by measuring increase in cell viability at 10 to 20 uM incubated for 24 hrs by MTT assay; format: functional, cell-based; conditions: dose 10-20 µM
[22] = system: BV-2; assay: Cytotoxicity against mouse BV-2 cells assessed as reduction in cell viability at 20 uM by MTT assay; format: toxicity, cell-based; conditions: bv-2, 20 µM
[23] = system: BV-2; assay: Anti-neuroinflammatory activity against LPS-stimulated mouse BV-2 cells assessed as reduction in TNF-alpha production pretreated for 1 hr with compound followed by LPS treatment for 24 hrs by ELISA; format: functional, cell-based; conditions: dose 5-20 µM, time 25.0 hrs, DDE = dose-dependent effect
[24] = target: Acetylcholinesterase (Electrophorus electricus) (UniProt O42275); assay: Inhibition of electric eel AChE using acetylthiocholine iodide as substrate at 1 uM preincubated with enzyme for 20 mins followed by substrate addition and measured after 10 mins by Ellman's method; conditions: time 30.0 min

T1 sequence (Q08499 whole entry): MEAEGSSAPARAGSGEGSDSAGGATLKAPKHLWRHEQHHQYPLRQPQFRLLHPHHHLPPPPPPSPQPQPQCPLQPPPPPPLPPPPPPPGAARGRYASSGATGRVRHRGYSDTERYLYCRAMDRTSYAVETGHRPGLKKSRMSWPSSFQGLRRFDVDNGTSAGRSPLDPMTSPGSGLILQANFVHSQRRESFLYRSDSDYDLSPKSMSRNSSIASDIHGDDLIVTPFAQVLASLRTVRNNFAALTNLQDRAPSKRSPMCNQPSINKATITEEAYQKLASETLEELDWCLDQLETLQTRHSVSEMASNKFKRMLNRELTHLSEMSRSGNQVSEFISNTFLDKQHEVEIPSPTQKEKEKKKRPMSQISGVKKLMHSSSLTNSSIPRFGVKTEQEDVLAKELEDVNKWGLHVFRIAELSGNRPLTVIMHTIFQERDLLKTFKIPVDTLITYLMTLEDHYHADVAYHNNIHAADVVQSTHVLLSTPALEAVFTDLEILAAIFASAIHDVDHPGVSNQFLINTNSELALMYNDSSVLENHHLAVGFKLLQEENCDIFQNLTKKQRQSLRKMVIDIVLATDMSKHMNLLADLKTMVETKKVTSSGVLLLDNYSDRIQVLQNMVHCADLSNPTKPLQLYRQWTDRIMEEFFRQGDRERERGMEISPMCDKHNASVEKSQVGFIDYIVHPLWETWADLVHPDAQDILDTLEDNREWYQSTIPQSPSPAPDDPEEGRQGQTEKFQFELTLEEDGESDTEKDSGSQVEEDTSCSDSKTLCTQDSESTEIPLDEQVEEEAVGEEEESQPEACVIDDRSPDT
Acetylcholinesterase, sequence (O42275 whole entry): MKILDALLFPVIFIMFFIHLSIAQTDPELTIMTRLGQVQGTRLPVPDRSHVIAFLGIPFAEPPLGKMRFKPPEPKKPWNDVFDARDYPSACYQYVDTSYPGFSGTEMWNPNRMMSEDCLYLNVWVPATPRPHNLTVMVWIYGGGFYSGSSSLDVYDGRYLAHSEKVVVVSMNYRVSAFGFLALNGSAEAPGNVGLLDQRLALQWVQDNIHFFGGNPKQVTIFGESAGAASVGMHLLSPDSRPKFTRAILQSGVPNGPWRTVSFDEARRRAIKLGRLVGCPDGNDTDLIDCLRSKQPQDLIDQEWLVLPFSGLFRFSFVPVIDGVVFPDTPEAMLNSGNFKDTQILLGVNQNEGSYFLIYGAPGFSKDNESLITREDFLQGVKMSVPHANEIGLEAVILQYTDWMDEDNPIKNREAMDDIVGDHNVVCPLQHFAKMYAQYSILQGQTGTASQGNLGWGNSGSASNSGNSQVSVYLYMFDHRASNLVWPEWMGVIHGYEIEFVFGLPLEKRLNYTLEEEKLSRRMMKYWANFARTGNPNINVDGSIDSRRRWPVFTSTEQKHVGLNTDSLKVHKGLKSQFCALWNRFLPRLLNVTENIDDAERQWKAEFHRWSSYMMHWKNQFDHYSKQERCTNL
Acetylcholinesterase (Electrophorus electricus), sequence (O42275 24-633 limits assumed): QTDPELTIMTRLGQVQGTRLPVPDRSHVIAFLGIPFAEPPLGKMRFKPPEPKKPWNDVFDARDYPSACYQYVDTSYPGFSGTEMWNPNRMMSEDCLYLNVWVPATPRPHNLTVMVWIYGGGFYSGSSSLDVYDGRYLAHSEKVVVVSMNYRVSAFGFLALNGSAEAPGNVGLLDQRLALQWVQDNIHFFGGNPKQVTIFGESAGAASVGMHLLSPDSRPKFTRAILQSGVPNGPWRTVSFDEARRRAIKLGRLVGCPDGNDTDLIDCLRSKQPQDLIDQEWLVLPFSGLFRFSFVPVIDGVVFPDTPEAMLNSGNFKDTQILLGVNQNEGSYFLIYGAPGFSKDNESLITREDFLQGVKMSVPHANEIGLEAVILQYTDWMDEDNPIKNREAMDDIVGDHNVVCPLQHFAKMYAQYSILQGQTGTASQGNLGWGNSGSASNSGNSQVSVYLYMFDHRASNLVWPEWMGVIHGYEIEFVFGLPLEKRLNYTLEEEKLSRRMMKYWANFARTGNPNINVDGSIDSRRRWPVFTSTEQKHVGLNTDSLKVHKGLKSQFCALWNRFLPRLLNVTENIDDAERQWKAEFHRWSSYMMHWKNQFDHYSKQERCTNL
Dual specificity calcium/calmodulin-dependent 3',5'-cyclic nucleotide phosphodiesterase 1A, sequence (P54750 whole entry): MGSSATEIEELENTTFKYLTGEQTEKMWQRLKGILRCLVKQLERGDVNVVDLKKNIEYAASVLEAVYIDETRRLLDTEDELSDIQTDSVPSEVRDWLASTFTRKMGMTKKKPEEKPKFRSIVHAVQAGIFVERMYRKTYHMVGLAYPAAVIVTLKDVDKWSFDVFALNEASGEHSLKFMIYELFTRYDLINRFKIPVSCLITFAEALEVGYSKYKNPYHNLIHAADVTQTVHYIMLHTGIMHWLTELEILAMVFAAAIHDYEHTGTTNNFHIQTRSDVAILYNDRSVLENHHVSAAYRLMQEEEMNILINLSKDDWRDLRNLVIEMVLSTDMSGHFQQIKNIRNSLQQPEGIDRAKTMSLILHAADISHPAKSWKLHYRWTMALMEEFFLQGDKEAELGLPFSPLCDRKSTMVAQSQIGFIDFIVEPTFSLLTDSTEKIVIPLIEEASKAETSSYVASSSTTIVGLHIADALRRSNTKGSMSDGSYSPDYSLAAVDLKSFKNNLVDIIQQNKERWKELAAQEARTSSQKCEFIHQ
cGMP-dependent 3',5'-cyclic phosphodiesterase, sequence (O00408 whole entry): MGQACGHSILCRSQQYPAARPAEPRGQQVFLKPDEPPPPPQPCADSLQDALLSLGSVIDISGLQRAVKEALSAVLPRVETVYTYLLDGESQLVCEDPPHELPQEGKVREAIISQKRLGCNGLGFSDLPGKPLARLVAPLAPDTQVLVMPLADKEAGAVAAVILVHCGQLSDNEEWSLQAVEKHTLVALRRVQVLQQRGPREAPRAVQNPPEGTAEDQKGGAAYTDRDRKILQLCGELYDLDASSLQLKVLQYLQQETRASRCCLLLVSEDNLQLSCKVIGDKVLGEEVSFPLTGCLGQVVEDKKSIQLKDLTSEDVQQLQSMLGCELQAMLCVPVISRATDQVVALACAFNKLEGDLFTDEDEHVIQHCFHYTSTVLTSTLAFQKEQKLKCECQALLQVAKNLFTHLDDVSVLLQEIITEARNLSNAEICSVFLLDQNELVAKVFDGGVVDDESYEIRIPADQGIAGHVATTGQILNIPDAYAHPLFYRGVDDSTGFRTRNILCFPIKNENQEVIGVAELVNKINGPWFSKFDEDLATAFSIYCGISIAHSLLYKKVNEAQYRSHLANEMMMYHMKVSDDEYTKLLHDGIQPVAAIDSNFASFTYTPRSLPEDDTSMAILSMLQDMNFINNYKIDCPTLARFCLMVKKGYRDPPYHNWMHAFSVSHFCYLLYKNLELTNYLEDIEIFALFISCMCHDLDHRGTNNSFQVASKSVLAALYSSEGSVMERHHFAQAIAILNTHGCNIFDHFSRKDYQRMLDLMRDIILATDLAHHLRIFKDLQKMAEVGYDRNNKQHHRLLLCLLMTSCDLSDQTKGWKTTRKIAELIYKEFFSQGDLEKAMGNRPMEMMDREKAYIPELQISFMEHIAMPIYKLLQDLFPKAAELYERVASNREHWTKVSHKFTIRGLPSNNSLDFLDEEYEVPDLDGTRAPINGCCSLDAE
Cholinesterase, sequence (P81908 whole entry): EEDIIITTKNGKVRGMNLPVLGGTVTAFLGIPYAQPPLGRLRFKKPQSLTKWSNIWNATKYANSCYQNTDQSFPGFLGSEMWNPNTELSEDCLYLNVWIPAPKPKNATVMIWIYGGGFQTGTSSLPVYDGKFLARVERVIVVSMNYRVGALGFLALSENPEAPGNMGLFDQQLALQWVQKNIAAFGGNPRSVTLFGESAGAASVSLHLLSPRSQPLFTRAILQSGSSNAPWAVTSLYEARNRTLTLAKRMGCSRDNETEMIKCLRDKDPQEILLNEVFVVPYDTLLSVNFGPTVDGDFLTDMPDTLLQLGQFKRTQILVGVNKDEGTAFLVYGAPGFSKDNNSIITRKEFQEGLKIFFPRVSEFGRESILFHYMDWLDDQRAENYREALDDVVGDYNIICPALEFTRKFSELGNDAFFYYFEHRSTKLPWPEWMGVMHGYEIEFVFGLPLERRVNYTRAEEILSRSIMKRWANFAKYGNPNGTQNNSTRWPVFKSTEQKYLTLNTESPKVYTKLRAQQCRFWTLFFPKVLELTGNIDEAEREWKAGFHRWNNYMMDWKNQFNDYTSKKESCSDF
High affinity 3',5'-cyclic-AMP phosphodiesterase 7A, sequence (Q13946 whole entry): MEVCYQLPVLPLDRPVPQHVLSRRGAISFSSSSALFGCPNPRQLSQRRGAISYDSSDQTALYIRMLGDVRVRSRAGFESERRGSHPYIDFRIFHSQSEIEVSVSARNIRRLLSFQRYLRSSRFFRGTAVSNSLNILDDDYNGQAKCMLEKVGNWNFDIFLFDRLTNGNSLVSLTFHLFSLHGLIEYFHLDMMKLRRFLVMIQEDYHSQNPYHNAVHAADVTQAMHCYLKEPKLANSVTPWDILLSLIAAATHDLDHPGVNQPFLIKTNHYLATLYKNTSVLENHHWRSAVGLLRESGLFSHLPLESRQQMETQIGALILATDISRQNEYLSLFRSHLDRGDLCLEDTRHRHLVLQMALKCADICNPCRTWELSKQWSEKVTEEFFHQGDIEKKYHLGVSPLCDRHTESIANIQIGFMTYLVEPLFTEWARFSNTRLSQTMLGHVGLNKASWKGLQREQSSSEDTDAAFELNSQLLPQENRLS

COc1cc2c(cc1OC)C(=O)C(CC1CCN(Cc3ccccc3)CC1)C2 (stereo unspecified) [DONEPEZIL]
IC50 [1]: 36 µM | Activity [2]: Active | Activity [3]: Active | inhibition [4]: Active | Activity [5]: Active | Activity [6]: Active

COc1cc2c(cc1OCC1CC1)CC(CC1CCN(Cc3ccccc3)CC1)C2=O (stereo unspecified)
IC50 [7]: 0.21 µM | inhibition [8]: < 10%

COc1cc2c(cc1OC1CCCC1)C/C(=C\c1cccnc1)C2=O
IC50 [7]: 11.7 µM | inhibition [8]: < 10% | inhibition [9]: 50%

COc1cc2c(cc1OCC(C)C)C(=O)C(Cc1ccncc1)C2 (stereo unspecified)
inhibition [8]: 34% | inhibition [9]: 14%

COc1ccc(C2CNC(=O)C2)cc1OC1CCCC1 (stereo unspecified)
Activity [2]: Active

COc1cc2c(cc1OCCN1CCCCC1)C(=O)C(Cc1cccnc1)C2 (stereo unspecified)
IC50 [7]: 0.28 µM | IC50 [1]: 1.88 µM | Ratio IC50 [10]: 19 | IC50 [11]: 36.9 µM | IC50 [12]: > 50 µM | IC50 [13]: > 50 µM | IC50 [14]: > 50 µM | IC50 [15]: > 50 µM | IC50 [16]: > 50 µM | IC50 [17]: > 50 µM | IC50 [18]: > 50 µM | IC50 [19]: > 50 µM | Activity [20]: Non-Toxic | Activity [21]: Active | Activity [22]: Non-Toxic | Activity [23]: Dde | Activity [3]: Active | inhibition [4]: Active | Activity [5]: Active

COc1cc2c(cc1OCC1CC1)C(=O)C(CC1CCNCC1)C2 (stereo unspecified)
inhibition [8]: < 10% | inhibition [9]: 21%

COc1cc2c(cc1OCC1CC1)C(=O)C(CC1CCN(Cc3ccccc3)CC1)C2 (stereo unspecified)
IC50 [7]: 0.045 µM | inhibition [8]: < 10%

COc1cc2c(cc1OCC1CC1)CC(CC1CCNCC1)C2=O (stereo unspecified)
inhibition [8]: < 10% | inhibition [9]: 25%

COc1ccc(CC2Cc3cc(OC)c(OCCN4CCCC4)cc3C2=O)cc1 (stereo unspecified)
inhibition [24]: 20%

COc1cc2c(cc1OC1CCCC1)C(=O)C(Cc1ccccn1)C2 (stereo unspecified)
IC50 [7]: 38.3 µM | IC50 [1]: 8.7 µM | inhibition [9]: 11%

COc1cc2c(cc1OC1CCCC1)C(=O)C(CC1CCNCC1)C2 (stereo unspecified)
inhibition [8]: < 10% | inhibition [9]: 11%

COc1cc2c(cc1OCC1CC1)CC(Cc1ccncc1)C2=O (stereo unspecified)
inhibition [8]: 31% | inhibition [9]: 23%

COc1cc2c(cc1OCC(C)C)C(=O)C(CC1CCN(Cc3ccccc3)CC1)C2 (stereo unspecified)
IC50 [7]: 0.5 µM | inhibition [8]: < 10%

COc1cc2c(cc1OCC(C)C)CC(CC1CCNCC1)C2=O (stereo unspecified)
inhibition [8]: < 10% | inhibition [9]: < 10%
